{"source": "patent US20070275855A1", "about": "“Herbicidal Composition” (ISHIHARA SANGYO KAISHA, LTD., priority 2004, published 2007)", "assay_type_in_all_cases": "in vivo", "key": {"[1]": {"tested_on": "Japanese bulrush (Scirpus juncoides)", "assay": "Test Example 4: paddy pot test, submerged application at 2.2 to 2.8 leaf stage", "settings": "for Growth inhibition rate (%) Observed: 2.2 to 2.8 leaf stage, 29 days after application", "description": "(§1) Growth inhibition rate (%)=0% (equivalent to the non-treated area) to 100% (complete kill)\nPaddy field soil was put into a 1/1,700 are pot, and seeds of Japanese bulrush (Scirpus juncoides) were sown and left to stand under an irrigated condition with a water depth of 3.5 cm. When Japanese bulrush reached 2.2 to 2.8 leaf stage, a wettable powder of compound A2, a wettable powder of compound B1 and an emulsifiable concentrate of benfuresate were, respectively, diluted with water and applied under submerged condition so that the active ingredients became the prescribed amounts, respectively. The state of growth was visually observed 29 days after application and evaluated in the same manner as in the above Test Example 1."}, "[2]": {"tested_on": "barnyardgrass (Echinochloa oryzicola vasing)", "assay": "Test Example 2: paddy pot test, submerged application at 2 leaf stage", "settings": "for Growth inhibition rate (%) Observed: 2 leaf stage, 18 days after application", "description": "(§2) When the herbicidal activity in a case where two active ingredients are combined, is larger than the simple sum of the respective herbicidal activities of the two active ingredients (the expected activity), it is called a synergistic effect. The activity expected by the combination of two active ingredients can be calculated as follows (Colby S. R., “Weed”, vol. 15, p. 20-22, 1967). E=α+β−(α×β÷100) where α: growth inhibition rate when treated with x (g/a) of herbicide X,\n(§3) β: growth inhibition rate when treated with y (g/a) of herbicide Y,\n(§4) E: growth inhibition rate expected when treated with x (g/a) of herbicide X and y (g/a) of herbicide Y.\n(§5) Namely when the actual growth inhibition rate (observed value) is larger than the growth inhibition rate by the above calculation (expected value), the activity by the combination can be regarded as showing a synergistic effect.\nas §1\n(§6) Paddy field soil was put into a 1/10,000 are pot, and seeds of barnyardgrass (Echinochloa oryzicola vasing) were sown and left to stand under an irrigated condition with a water depth of 3.5 cm. When barnyardgrass reached 2 leaf stage, a wettable powder of compound A2 diluted with water and a microemulsion of compound B1 as it was were, respectively, applied under submerged condition so that the active ingredients became the prescribed amounts, respectively. The state of growth was visually observed 18 days after application and evaluated in the same manner as in the above Test Example 1."}, "[3]": {"tested_on": "barnyardgrass (Echinochloa oryzicola vasing)", "assay": "Test Example 5: paddy pot test, submerged application at 2.4 to 3.2 leaf stage", "description": "as §1\nas §6, with “2.4 to 3.2” for “2”, “stage,” for “stage, a”, “powders” for “powder”, “A2 compound B1 and azimsulfuron were, respectively,” for “A2”, “and” for “and a microemulsion of compound B1 as it was were, respectively,”, “29” for “18”"}, "[4]": {"tested_on": "barnyardgrass (Echinochloa oryzicola vasing)", "assay": "Test Example 1: paddy pot test, submerged application on the next day after sowing", "settings": "for Growth inhibition rate (%) Observed: next day after sowing, 21 days after application", "description": "as §2, §3, §4, §5\nPaddy field soil was put into a 1/1,700 are pot, and seeds of barnyardgrass (Echinochloa oryzicola vasing) were sown and left to stand under an irrigated condition with a water depth of 3.5 cm. On the next day after the sowing, a wettable powder of compound A2 diluted with water and a microemulsion of compound B1 as it was were, respectively, applied under submerged condition so that the active ingredients became the prescribed amounts, respectively The state of growth was visually observed 21 days after application and the growth inhibition rate (%) evaluated in accordance with the following evaluation standard (observed value) and the growth inhibition rate (%) calculated by the above-mentioned Colby method (expected value) are shown in Table 1.\nas §1"}, "[5]": {"tested_on": "barnyardgrass (Echinochloa oryzicola vasing)", "assay": "Test Example 3: paddy pot test, submerged application at 3 leaf stage", "settings": "504 h, 21 days after application, read-out: Growth inhibition rate (%) Observed", "description": "as §2, §3, §4, §5, §1\nPaddy field soil was put into a 1/10,000 are pot, and seeds of barnyardgrass (Echinochloa oryzicola vasing) were sown and left to stand under an irrigated condition with a water depth of 3.5 cm. […] The state of growth was visually observed 21 days after application and evaluated in the same manner as in the above Test Example 1."}, "[6]": {"settings": "Schoenoplectiella juncoides, 696 h, read-out: Growth inhibition rate (%) Observed"}, "[7]": {"settings": "Echinochloa oryzicola, 432 h, read-out: Growth Inhibition rate (%) Observed"}, "[8]": {"settings": "Echinochloa oryzicola, 504 h, read-out: Growth inhibition rate (%) Observed"}}}
{"smiles": "CCS(=O)(=O)Oc1ccc2c(c1)C(C)(C)CO2", "note": "[Benfuresate, benfuresate, reference compound]", "values": [{"measurement": "Growth inhibition rate (%) Observed", "setting": "[1]; 6 g/a", "result": 90, "unit": "%"}, {"measurement": "Growth inhibition rate (%) Observed", "setting": "[1]; 9 g/a", "result": 89, "unit": "%"}]}
{"smiles": "COCC(=O)OC(c1ncccc1S(=O)(=O)NC(=O)Nc1nc(OC)cc(OC)n1)C(C)F", "note": "(stereo not drawn) [Compound A2, flucetosulfuron]", "values": [{"measurement": "Growth inhibition rate (%) Observed", "setting": "[1]; 0.22 g/a", "result": 87, "unit": "%"}, {"measurement": "Growth inhibition rate (%) Observed", "setting": "[2]; 0.05 g/a", "result": 84, "unit": "%"}, {"measurement": "Growth inhibition rate (%) Observed", "setting": "[2]; 0.10 g/a", "result": 98, "unit": "%"}, {"measurement": "Growth inhibition rate (%) Observed", "setting": "[2]; 0.15 g/a", "result": 99, "unit": "%"}, {"measurement": "Growth inhibition rate (%) Observed", "setting": "[3]; 0.11 g/a, 2.4 to 3.2 leaf stage, 29 days after application", "result": 96, "unit": "%"}, {"measurement": "Growth inhibition rate (%) Observed", "setting": "[4]; 0.1 g/a", "result": 95, "unit": "%"}, {"measurement": "Growth inhibition rate (%) Observed", "setting": "[4]; 0.2 g/a", "result": 98, "unit": "%"}]}
{"smiles": "CCOC(=O)C(Cl)Cc1cc(-n2nc(C)n(C(F)F)c2=O)c(F)cc1Cl", "note": "(stereo not drawn) [Compound B1, carfentrazone-ethyl]", "values": [{"measurement": "inhibition at 50 g/ha", "setting": "[1]; [6]", "result": 80, "unit": "%"}, {"measurement": "inhibition at 100 g/ha", "setting": "[1]; [6]", "result": 100, "unit": "%"}, {"measurement": "inhibition at 150 g/ha", "setting": "[1]; [6]", "result": 99, "unit": "%"}, {"measurement": "inhibition at 30 g/ha", "setting": "[2]; [7]", "result": 3, "unit": "%"}, {"measurement": "inhibition at 45 g/ha", "setting": "[2]; [7]", "result": 8, "unit": "%"}, {"measurement": "inhibition at 67.5 g/ha", "setting": "[2]; [7]", "result": 13, "unit": "%"}, {"measurement": "inhibition at 101.2 g/ha", "setting": "[2]; [7]", "result": 18, "unit": "%"}, {"measurement": "inhibition at 37.5 g/ha", "setting": "[3]; Echinochloa oryzicola, 696 h, read-out: Growth inhibition rate (%) Observed", "result": 5, "unit": "%"}, {"measurement": "inhibition at 20 g/ha", "setting": "[4]; [8]", "result": 0, "unit": "%"}, {"measurement": "inhibition at 30 g/ha", "setting": "[4]; [8]", "result": 0, "unit": "%"}, {"measurement": "inhibition at 11.3 g/ha", "setting": "[5]; 0.113 g/a", "result": 0, "unit": "%"}, {"measurement": "inhibition at 22.5 g/ha", "setting": "[5]; 0.225 g/a", "result": 0, "unit": "%"}]}
